For orientation: IC50 means the point on the concentration scale where inhibition reaches its midpoint.

Consider 26 compounds from BindingDB's records for doi:10.1021/jm060290f (Cardiff University, 2006).

For one experiment, the target named is sterol 24-C-methyltransferase (Trypanosoma brucei brucei). Description: Inhibition of Trypanosoma brucei brucei recombinant 24-SMT.
On to `COC(=O)CCCCCCCNC[C@@H](C)[C@H]1CC[C@H]2C3CC=C4C[C@@H](OC(C)=O)CC[C@]4(C)[C@H]3CC[C@]12C` (stereo partly drawn) [3beta-acetoxy-23,24-bisnor-chol-5-en-22-(methyl octanoate) amine], for which the IC50 is greater than 100 µM.

A further experiment deals with sterol 24-C-methyltransferase (Leishmania major). Description: Inhibition of Leishmania major recombinant 24-SMT.
With `C[C@H](CNCCCCCCCC(=O)O)[C@H]1CC[C@H]2C3CC=C4C[C@@H](O)CC[C@]4(C)[C@H]3CC[C@]12C` (stereo partly drawn) [3beta-ol-23,24-bisnor-5-en-22-(octanoic acid) amine], the IC50 is greater than 100 µM.
As to `CC(=O)O[C@H]1CC[C@@]2(C)C(=CCC3[C@@H]4CC[C@H]([C@H](C)CNCC[C@H](NC(=O)OC(C)(C)C)C(=O)O)[C@@]4(C)CC[C@@H]32)C1` (stereo partly drawn) [3beta-acetoxy-23,24-bisnor-5-en-22-(4-(2-Boc-amino)butanoic acid) amine], the IC50 is greater than 100 µM.
The same measure, in the same setting: the same measure for `C[C@H](C(=O)NCCC(=O)O)[C@H]1CC[C@H]2C3CC=C4C[C@@H](O)CC[C@]4(C)[C@H]3CC[C@]12C` (stereo partly drawn) [3beta-ol-23,24-bisnor-5-en-22-(propanoic acid) amide]: greater than 100 µM; for `CC(=O)O[C@H]1CC[C@@]2(C)C(=CCC3[C@@H]4CC[C@H]([C@H](C)CNCCCCCCCC(=O)O)[C@@]4(C)CC[C@@H]32)C1` (stereo partly drawn) [3beta-acetoxy-23,24-bisnor-chol-5-en-22-(octanoic acid) amine]: greater than 100 µM.
The same measure, in the same setting: the result for `COC(=O)CCCCNC[C@@H](C)[C@H]1CC[C@H]2C3CC=C4C[C@@H](OC(C)=O)CC[C@]4(C)[C@H]3CC[C@]12C` (stereo partly drawn) [3beta-acetoxy-23,24-bisnor-chol-5-en-22-(methyl pentanoate) amine] reads greater than 100 µM.
For the compound `COC(=O)CCNC[C@@H](C)[C@H]1CC[C@H]2C3CC=C4C[C@@H](OC(C)=O)CC[C@]4(C)[C@H]3CC[C@]12C` (stereo partly drawn) [3beta-acetoxy-23,24-bisnor-chol-5-en-22-(methyl propanoate) amine], the IC50 was greater than 100 µM.
In the case of `CC(=O)O[C@H]1CC[C@@]2(C)C(=CCC3[C@@H]4CC[C@H]([C@H](C)C(=O)NCCC[C@H](NC(=O)OCc5ccccc5)C(=O)O)[C@@]4(C)CC[C@@H]32)C1` (stereo partly drawn) [3beta-acetoxy-23,24-bisnor-5-en-22-(5-(2-Z-amino)pentanoic acid) amide], the IC50 was greater than 100 µM.
Still for that read-out and setting: the result for `COC(=O)[C@@H](N)CCCCNC(=O)[C@@H](C)[C@H]1CC[C@H]2C3CC=C4C[C@@H](O)CC[C@]4(C)[C@H]3CC[C@]12C` (stereo partly drawn) [3beta-ol-23,24-bisnor-5-en-22-(6-(2-amino) hexanoate ester) amide] reads greater than 100 µM; that for `CC(=O)O[C@H]1CC[C@@]2(C)C(=CCC3[C@@H]4CC[C@H]([C@H](C)CNCCC[C@H](NC(=O)OCc5ccccc5)C(=O)O)[C@@]4(C)CC[C@@H]32)C1` (stereo partly drawn) [3beta-acetoxy-23,24-bisnor-5-en-22-(5-(2-Z-amino)pentanoic acid) amine], greater than 100 µM; that for `C[C@H](C(=O)NCCCC(=O)O)[C@H]1CC[C@H]2C3CC=C4C[C@@H](O)CC[C@]4(C)[C@H]3CC[C@]12C` (stereo partly drawn) [3beta-ol-23,24-bisnor-5-en-22-(butanoic acid) amide], greater than 100 µM.
Turning to `COC(=O)CCCCCCCNC[C@@H](C)[C@H]1CC[C@H]2C3CC=C4C[C@@H](OC(C)=O)CC[C@]4(C)[C@H]3CC[C@]12C` (stereo partly drawn) [3beta-acetoxy-23,24-bisnor-chol-5-en-22-(methyl octanoate) amine], the IC50 is greater than 100 µM.
Still for that read-out and setting: the result for `C[C@H](C(=O)NCCCCCCCC(=O)O)[C@H]1CC[C@H]2C3CC=C4C[C@@H](O)CC[C@]4(C)[C@H]3CC[C@]12C` (stereo partly drawn) [3beta-ol-23,24-bisnor-5-en-22-(octanoic acid) amide] reads greater than 100 µM; that for `C[C@H](C(=O)NCCCC[C@H](NC(=O)OCc1ccccc1)C(=O)O)[C@H]1CC[C@H]2C3CC=C4C[C@@H](O)CC[C@]4(C)[C@H]3CC[C@]12C` (some centres not stated) [3beat-ol-23,24-bisnor-5-en-22-(6-(2-Z-amino)hexanoic acid) amide], greater than 100 µM; that for `C[C@H](C(=O)NCC(=O)O)[C@H]1CC[C@H]2C3CC=C4C[C@@H](O)CC[C@]4(C)[C@H]3CC[C@]12C` (stereo partly drawn) [3beta-ol-23,24-bisnor-5-en-22-(ethanoic acid) amide], greater than 100 µM.
With `CC(=O)O[C@H]1CC[C@@]2(C)C(=CCC3[C@@H]4CC[C@H]([C@H](C)CNCCCC(=O)O)[C@@]4(C)CC[C@@H]32)C1` (stereo partly drawn) [3beta-acetoxy-23,24-bisnor-chol-5-en-22-(butanoic acid) amine], the IC50 is greater than 100 µM.
As to `C[C@H](CNCCCCCC(=O)O)[C@H]1CC[C@H]2C3CC=C4C[C@@H](O)CC[C@]4(C)[C@H]3CC[C@]12C` (stereo partly drawn) [3beta-ol-23,24-bisnor-5-en-22-(hexanoic acid) amine], the IC50 is greater than 100 µM.
As to `CC(=O)O[C@H]1CC[C@@]2(C)C(=CCC3[C@@H]4CC[C@H]([C@H](C)C(=O)NCCCC[C@H](NC(=O)OCc5ccccc5)C(=O)OCc5ccccc5)[C@@]4(C)CC[C@@H]32)C1` (stereo partly drawn) [3beta-acetoxy-23,24-bisnor-5-en-22-(6-(2-Z-amino)benzyl hexanoate) amide], the IC50 was greater than 100 µM.
Same read-out and setting: the same measure for `COC(=O)CNC[C@@H](C)[C@H]1CC[C@H]2C3CC=C4C[C@@H](OC(C)=O)CC[C@]4(C)[C@H]3CC[C@]12C` (stereo partly drawn) [3beta-acetoxy-23,24-bisnor-chol-5-en-22-(methyl ethanoate) amine]: greater than 100 µM.
Take `CC(=O)O[C@H]1CC[C@@]2(C)C(=CCC3[C@@H]4CC[C@H]([C@H](C)C(=O)NC[C@H](NC(=O)OC(C)(C)C)C(=O)O)[C@@]4(C)CC[C@@H]32)C1` (stereo partly drawn) [3beta-acetoxy-23,24-bisnor-5-en-22-(3-(2-Boc-amino)propanoic acid) amide]: the IC50 is greater than 100 µM.
Turning to `C[C@H](C(=O)NCCCCC(=O)O)[C@H]1CC[C@H]2C3CC=C4C[C@@H](O)CC[C@]4(C)[C@H]3CC[C@]12C` (stereo partly drawn) [3beta-ol-23,24-bisnor-5-en-22-(pentanoic acid) amide], the IC50 is greater than 100 µM.
`CC(=O)O[C@H]1CC[C@@]2(C)C(=CCC3[C@@H]4CC[C@H]([C@H](C)C(=O)NCC[C@H](NC(=O)OC(C)(C)C)C(=O)O)[C@@]4(C)CC[C@@H]32)C1` (stereo partly drawn) [3beta-acetoxy-23,24-bisnor-5-en-22-(4-(2-Boc-amino)butanoic acid) amide]: the 50% inhibitory concentration (IC50) is greater than 100 µM.
On to `C[C@H](C(=O)NCCCCCC(=O)O)[C@H]1CC[C@H]2C3CC=C4C[C@@H](O)CC[C@]4(C)[C@H]3CC[C@]12C` (stereo partly drawn) [3beta-ol-23,24-bisnor-5-en-22-(hexanoic acid) amide], for which the IC50 was greater than 100 µM.
On the same count and under the same terms, the same measure for `CC(=O)O[C@H]1CC[C@@]2(C)C(=CCC3[C@@H]4CC[C@H]([C@H](C)CNC[C@H](NC(=O)OC(C)(C)C)C(=O)O)[C@@]4(C)CC[C@@H]32)C1` (stereo partly drawn) [3beta-acetoxy-23,24-bisnor-5-en-22-(3-(2-Boc-amino)propanoic acid) amine]: greater than 100 µM; for `C[C@H](CNCC(=O)O)[C@H]1CC[C@H]2C3CC=C4C[C@@H](O)CC[C@]4(C)[C@H]3CC[C@]12C` (stereo partly drawn) [3beta-ol-23,24-bisnor-5-en-22-(ethanoic acid) amine]: greater than 100 µM.
Same read-out and setting: the result for `C[C@H](CNCCCCC(=O)O)[C@H]1CC[C@H]2C3CC=C4C[C@@H](O)CC[C@]4(C)[C@H]3CC[C@]12C` (stereo partly drawn) [3beta-ol-23,24-bisnor-5-en-22-(pentanoic acid) amine] reads 48.9 µM; that for `C[C@H](C(=O)NCCC[C@H](NC(=O)OCc1ccccc1)C(=O)O)[C@H]1CC[C@H]2C3CC=C4C[C@@H](O)CC[C@]4(C)[C@H]3CC[C@]12C` (stereo partly drawn) [3beta-ol-23,24-bisnor-5-en-22-(5-(2-Z-amino)pentanoic acid) amide], greater than 100 µM.
